Source: ChEMBL document CHEMBL6127141, “1-Deoxynojirimycin Derivative Containing Tegafur Induced HCT-116 Cell Apoptosis through Mitochondrial Dysfunction and Oxidative Stress Pathway” (ACS Med Chem Lett, 2024)
pIC50: −log10 of the molar value. Activity calls are given as the source filed them. No cut-off for these calls is given here.

Key:
HCT-116 [1] = assay: Induction of oxidative stress in human HCT-116 cells assessed as increase in MDA level at 5 to 10 uM incubated for 24 hrs by Lipid Peroxidation MDA assay; format: functional, cell-based; settings: dose 5-10 µM
HCT-116 [2] = assay: Induction of apoptosis in human HCT-116 cells assessed as appearance of bright blue appearance at 10 uM incubated for 24 hrs by Hoechst 33342 staining based fluorescence microscopic analysis; format: functional, cell-based
[3] = Potency index, ratio of 1-Deoxynojirimycin IC50 to test compound IC50 for cytotoxicity against human HCT-116 cells assessed as inhibition of cell proliferation incubated for 48 hrs by MTT assay; format: functional
L02 = assay: Cytotoxicity against human L02 cells assessed as inhibition of cell proliferation incubated for 48 hrs by MTT assay; format: functional, cell-based; settings: L02, 48 h
HCT-116 [4] = assay: Induction of apoptosis in human HCT-116 cells assessed as upregulation of Bax protein level at 10 uM incubated for 24 hrs by Western blot analysis; format: functional, cell-based
HepG2 = assay: Cytotoxicity against human HepG2 cells assessed as inhibition of cell proliferation incubated for 48 hrs by MTT assay; format: functional, cell-based; settings: HepG2, 48 h
BGC-823 = assay: Cytotoxicity against human BGC-823 cells assessed as inhibition of cell proliferation incubated for 48 hrs by MTT assay; format: functional, cell-based; settings: BGC-823, 48 h
HCT-116 [5] = assay: Induction of oxidative stress in human HCT-116 cells assessed as increase in NO level at 5 to 10 uM incubated for 24 hrs; format: functional, cell-based; settings: dose 5-10 µM
A549 = assay: Cytotoxicity against human A549 cells assessed as inhibition of cell proliferation incubated for 48 hrs by MTT assay; format: functional, cell-based; settings: A549, 48 h
HCT-116 [6] = assay: Induction of apoptosis in human HCT-116 cells assessed as apoptotic cells at 10 uM incubated for 24 hrs by Annexin V-FITC/PI staining based flow cytometric analysis relative to control; format: functional
HCT-116 [7] = assay: Induction of apoptosis in human HCT-116 cells assessed as cell contraction at 10 uM incubated for 24 hrs by Hoechst 33342 staining based fluorescence microscopic analysis; format: functional
Mitochondrial membrane = assay: Induction of mitochondrial membrane potential loss in human HCT-116 cells assessed as decrease in red fluorescence at 10 uM incubated for 24 hrs by JC-1 staining based fluorescence microscopic analysis; format: cell membranes
HCT-116 [8] = assay: Induction of cell cycle arrest in human HCT-116 cells assessed as accumulation of cells at S phase at 10 uM incubated for 24 hrs by flow cytometric analysis (reference value: 4.7 %); format: functional
HCT-116 [9] = assay: Induction of DNA damage in human HCT-116 cells assessed as increase in TS protein expression at 10 uM incubated for 24 hrs by Western blot analysis; format: functional, cell-based
Alpha glucosidase = Alpha glucosidase (Homo sapiens, UniProt O43451+P10253+P14410+Q2M2H8); assay: Inhibition of alpha-glucosidase (unknown origin) using para-nitrophenyl-alpha-d-glucopyranoside as substrate preincubated for 5 mins followed by substrate addition and measured after 30 mins by microplate reader; format: protein assay
HCT-116 [10] = assay: Induction of oxidative stress in human HCT-116 cells assessed as decrease in GSH concentration at 5 to 10 uM incubated for 24 hrs; format: functional, cell-based; settings: dose 5-10 µM
HCT-116 [11] = assay: Cytotoxicity against human HCT-116 cells assessed as inhibition of cell proliferation at 5 to 10 uM preincubated with NAC for 3 hrs followed by compound addition and measured after 48 hrs by MTT assay; format: functional, cell-based; settings: dose 5-10 µM
HCT-116 [12] = assay: Induction of oxidative stress in human HCT-116 cells assessed as decrease in SOD concentration at 5 to 10 uM incubated for 24 hrs; format: functional, cell-based; settings: dose 5-10 µM
HCT-116 [13] = assay: Anti-metastatic activity in human HCT-116 cells assessed as inhibition of cell migration by measuring wound healing rate at 10 uM incubated for 24 hrs by inverted fluorescence microscopic analysis relative to control; format: functional; design: scale not given: the % may be the effect or the level left
HCT-116 [14] = assay: Induction of apoptosis in human HCT-116 cells assessed as downregulation of Bcl2 protein level at 10 uM incubated for 24 hrs by Western blot analysis; format: functional, cell-based
HCT-116 [15] = assay: Induction of oxidative stress in human HCT-116 cells assessed as decrease in Nrf2 level at 10 uM incubated for 24 hrs by Western blot analysis; format: functional, cell-based
HCT-116 [16] = assay: Inhibition of colony formation in human HCT-116 cells at 5 to 10 uM incubated for 48 hrs by crystal purple staining based analysis; format: functional, cell-based; settings: dose 5-10 µM
HCT-116 [17] = assay: Induction of ROS accumulation in human HCT-116 cells assessed as increase in green fluorescence intensity at 5 to 10 uM preincubated with NAC for 3 hrs followed by compound addition and measured after 24 hrs by DCFH-DA staining based fluorescence microscopic analysis; format: functional, cell-based; settings: dose 5-10 µM
HCT-116 [18] = assay: Cytotoxicity against human HCT-116 cells assessed as inhibition of cell proliferation incubated for 48 hrs by MTT assay; format: functional, cell-based; settings: HCT-116, 48 h
[19] = Lipophilicity, logP of compound in n-octanol saturated PBS incubated for 24 hrs by shake-flask method based ultraviolet spectrophotometry; format: physicochemical
[20] = Selectivity index, ratio of IC50 for cytotoxicity against human L02 cells to IC50 for cytotoxicity against human HCT-116 cells; format: toxicity, cell-based; settings: L02 cells and HCT-116 cells, read-out: Ratio IC50
HeLa = assay: Cytotoxicity against human HeLa cells assessed as inhibition of cell proliferation incubated for 48 hrs by MTT assay; format: functional, cell-based
HCT-116 [21] = assay: Induction of ROS accumulation in human HCT-116 cells assessed as increase in green fluorescence intensity at 5 to 10 uM incubated for 24 hrs by DCFH-DA staining based fluorescence microscopic analysis; format: functional, cell-based; settings: dose 5-10 µM
HCC1937 = assay: Cytotoxicity against human HCC1937 cells assessed as inhibition of cell proliferation incubated for 48 hrs by MTT assay; format: functional, cell-based; settings: HCC1937, 48 h
HCT-116 [22] = assay: Anti-metastatic activity in human HCT-116 cells assessed as inhibition of cell migration by measuring wound healing rate at 10 uM incubated for 24 hrs in presence of 1-Deoxynojirimycin by inverted fluorescence microscopic analysis relative to control; format: functional; design: scale not given: the % may be the effect or the level left
HCT-116 [23] = assay: Induction of apoptosis in human HCT-116 cells assessed as apoptotic cells at 10 uM incubated for 24 hrs in presence of 1-Deoxynojirimycin by Annexin V-FITC/PI staining based flow cytometric analysis relative to control; format: functional
HCT-116 [24] = assay: Induction of cell cycle arrest in human HCT-116 cells assessed as accumulation of cells at S phase at 10 uM incubated for 24 hrs in presence of 1-Deoxynojirimycin by flow cytometric analysis (reference value: 4.7 %); format: functional
HCT-116 [25] = assay: Induction of apoptosis in human HCT-116 cells assessed as apoptotic cells at 10 uM incubated for 24 hrs in presence of tegafur by Annexin V-FITC/PI staining based flow cytometric analysis relative to control; format: functional
HCT-116 [26] = assay: Induction of cell cycle arrest in human HCT-116 cells assessed as accumulation of cells at S phase at 10 uM incubated for 24 hrs in presence of tegafur by flow cytometric analysis (reference value: 4.7 %); format: functional
HCT-116 [27] = assay: Anti-metastatic activity in human HCT-116 cells assessed as inhibition of cell migration by measuring wound healing rate at 10 uM incubated for 24 hrs in presence of tegafur by inverted fluorescence microscopic analysis relative to control; format: functional; design: scale not given: the % may be the effect or the level left

Row | SMILES | pIC50 (L02) | pIC50 (HepG2) | pIC50 (BGC-823) | pIC50 (A549) | Activity (HCT-116 [6]) [%] | Activity (HCT-116 [8]) [%] | IC50 (Alpha glucosidase) [µM] | Activity (HCT-116 [13]) [%] | pIC50 (HCT-116 [18]) | logP at 24 h [19] | selectivity ratio [20] | pIC50 (HeLa) | pIC50 (HCC1937) | other results
1 | O=c1c(F)cn(C2CCCO2)c(=O)n1CCCCCCCCCCCN1C[C@H](O)[C@@H](O)[C@H](O)[C@H]1CO (some centres not stated) | 4.70 | 5.11 | 5.36 | 5.20 | 69.8 | 49.31 | 2.76 | 9.42 | 5.86 | 1.02 | 14.4 | 4.89 | 5.04 | Activity (HCT-116 [1]): Active; Activity (HCT-116 [2]): Active; Ratio IC50 [3]: 73; Activity (HCT-116 [4]): Active; Activity (HCT-116 [5]): Active; Activity (HCT-116 [7]): Active; Activity (Mitochondrial membrane): Active; Activity (HCT-116 [9]): Active; Activity (HCT-116 [10]): Active; Activity (HCT-116 [11]): inactive; Activity (HCT-116 [12]): Active; Activity (HCT-116 [14]): Active; Activity (HCT-116 [15]): Active; inhibition (HCT-116 [16]): Active; Activity (HCT-116 [17]): inactive; Activity (HCT-116 [21]): Active
2 | O=c1[nH]c(=O)n(C2CCCO2)cc1F (configuration not stated) [TEGAFUR] | 4.63 | < 4.00 | 4.00 | < 4.00 | 8.99 | 43.81 |  | 44.37 | 4.05 |  | 0.27 | 4.02 | < 4.00 | Activity (HCT-116 [22]): 32%; Activity (HCT-116 [23]): 15.17%; Activity (HCT-116 [24]): 34.84%
3 | O=c1c(F)cn(C2CCCO2)c(=O)n1CCCCCCCCN1C[C@H](O)[C@@H](O)[C@H](O)[C@H]1CO (some centres not stated) | 4.53 | 4.83 | 4.90 | 4.71 |  |  | 15.09 |  | 5.14 | -0.65 | 4 | 4.57 | 4.71 | 
4 | O=c1c(F)cn(C2CCCO2)c(=O)n1CCCCCN1C[C@H](O)[C@@H](O)[C@H](O)[C@H]1CO (some centres not stated) | 4.25 | 4.39 | 4.41 | 4.24 |  |  | 40.96 |  | 4.81 | -2.49 | 3.6 | 4.53 | 4.36 | 
5 | OC[C@H]1NC[C@H](O)[C@@H](O)[C@@H]1O [DUVOGLUSTAT] | < 4.00 | < 4.00 | < 4.00 | < 4.00 | 6.16 | 11.29 |  | 51.91 | < 4.00 | -0.68 |  | < 4.00 | < 4.00 | Activity (HCT-116 [25]): 15.17%; Activity (HCT-116 [26]): 34.84%; Activity (HCT-116 [27]): 32%
